In brackets after ≈: the same amount, converted by molar mass. Entries after “also recorded” stand apart in the source; their conditions may differ. Each block holds one compound with its values, some of them ahead of it.
Legend:
[1] = Pharmacokinetics in female Balb/c mice after intravenous injection and oral administration; type: in vivo
Method: Object of the assay: to test the pharmacokinetics of the compound in female Balb/c mice in vivo
Balb/c mice (female, 15 to 30 g, 7 to 9 weeks old, from Shanghai Lingchang Biotechnology Company)
The pharmacokinetic profile of the compound after intravenous injection and oral administration in the rodents was tested by the standard protocol. In the assay, the candidate compound was prepared into a clear solution to be administered to the mice through a single intravenous injection and prepared into a homogeneous suspension to be administered to the mice through a single oral administration. The vehicle for the intravenous injection was 5% DMSO/95% 10% Cremophor EL, and the vehicle for the oral administration was 1% Tween 80, 9% PEG400, and 90% water. The whole blood sample was collected within 24 hours, and centrifuged at 3000 g at 4° C. for 15 minutes. The supernatant was separated to give the plasma sample, and 20 times volume of acetonitrile solution containing an internal standard was added to precipitate the proteins. […] The supernatant was taken out, and injected as a sample to quantitatively analyze the plasma drug concentration by LC-MS/MS analysis method. The pharmacokinetic parameters were calculated, such as peak concentration, peak time, clearance rate, half-life, area under the drug-time curve, bioavailability, etc.

[2] = molecular target: T1, human adenosine A2a receptor (Homo sapiens, UniProt P29274); assay: Calcium flux assay of the human adenosine A2a receptor (FLIPR, CHO cells stably expressing A2a, agonist NECA); type: cell-based; details: conclusion on Table 3
T1 construct: host or cells: CHO cells
Method: Calcium Flux Assay of the Human Adenosine A2a Receptor
The cell line stably expressing A2a was constructed by Shanghai WuXi AppTec, and the host cells were CHO cells.
Fluo-4 Direct kit (Invitrogen, Cat. No. F10471). The fluorescence detection reagent in the kit (which can specifically bind to calcium ions and cause an increase in the fluorescence signal) was incubated with the cells for an appropriate period of time, and the compounds were added to stimulate the cells to cause changes in the intracellular calcium flux, thereby causing changes in the fluorescence signal, which can reflect the strength of the agonistic or inhibitory activity of the compounds. […]
FLIPR instrument software was run. According to the set program, 10 μl of the compound dilution buffer was added to the cell plate, and the fluorescence signal was read. Then 10 μl of a predetermined concentration of the agonist as a reference compound was added to the cell plate, and the fluorescence signal was read. After the reading, data was exported through the “Max-Min” and “Read 90 to Maximum allowed” methods in the software. EC80 of the A2A cell line was calculated, and the agonist with a concentration of 6×EC80 was prepared. […]
FLIPR instrument software was run. […] Again, 10 μl of the agonist as a reference compound with a concentration of 6×EC80 was added to the cell plate, and the fluorescence signal was read. […]

[3] = tested on: CT26 cells; assay: Pharmacodynamics in vivo in CT-26 model (subcutaneous CT26 tumor in BALB/c nude mice); details: anti-PD-1 5 mg/Kg QW; for Volume of tumor: crystal form A 50 mg/Kg BID oral
Text: Assay Example 4: Study of Pharmacodynamics of Crystal Form a of Compound 1 In Vivo in CT-26 Model
BALB/c nude mice (female, 7 weeks old, and weighing about 16 to 20 g) were kept in a breeding environment of SPF-class animal room, and in single ventilated cages (5 mice per cage). Bedding and water in all cages were disinfected before use. All the animals had free access to the standard certified commercial laboratory diet. A total of 80 mice were purchased from Shanghai Slack Laboratory Animal Co., Ltd. Anti-PD-1 antibody was purchased from BioXcell with the clone of RMP-14 and the product number of BP0146. 0.1 mL of 3×10^5 CT26 cells were subcutaneously inoculated in the right back of each mouse, and the mice were randomly divided into groups for administration.
CT26 cells were subcutaneously inoculated in the right back of each BALB/c nude mouse to test pharmacodynamics in vivo. In the assay, the test compound was administered orally every day for 22 consecutive days, and the anti-PD-1 antibody was administered once per week for three consecutive weeks. The volume of the tumor was measured twice a week with a two-dimensional caliper, and the volume was measured in cubic millimeter, which was calculated by the following formula: V=0.5 a×b^2, wherein a and b were the long and short diameters of the tumor, respectively. The anti-tumor efficacy was determined by dividing the average volume increase of the tumors of animals treated with the compound by the average volume increase of the tumors of the untreated animals. (BID means twice a day)

[4] = Determination of solubility of crystal form A of compound 1 in single or mixed solvents; type: physicochemical; details: for solubility: organic solvent or mixture, thermodynamic from solid
Method: Assay Example 1: Determination of Solubility of Crystal Form A of Compound 1
Multiple portions of about 2.0 mg of crystal form A of compound 1 were weighed in parallel and placed in glass vials. Various single solvents or mixed solvents listed in Table 2 were gradually added in small amount, and shaken constantly, while the dissolution of the compound was observed. The solubility of the compound was calculated based on the weight of the weighed compound and the volume of the correspondingly added solvent.

T1 sequence (P29274 whole entry): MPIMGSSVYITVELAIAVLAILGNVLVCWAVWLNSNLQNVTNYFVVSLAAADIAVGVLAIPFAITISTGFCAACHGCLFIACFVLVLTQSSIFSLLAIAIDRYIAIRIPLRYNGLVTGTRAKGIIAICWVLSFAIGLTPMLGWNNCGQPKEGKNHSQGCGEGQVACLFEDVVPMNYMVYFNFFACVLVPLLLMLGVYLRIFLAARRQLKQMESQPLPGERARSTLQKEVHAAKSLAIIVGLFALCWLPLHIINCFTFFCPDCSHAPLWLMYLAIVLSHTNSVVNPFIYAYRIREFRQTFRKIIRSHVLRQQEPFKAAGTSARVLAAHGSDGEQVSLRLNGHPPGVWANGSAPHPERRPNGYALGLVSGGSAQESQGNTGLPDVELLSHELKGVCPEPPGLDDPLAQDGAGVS

- Pharmacokinetic index in mice (in words) ([1]; conclusion on Table 4): excellent pharmacokinetic index
- clearance ([1]; mouse, plasma, female Balb/c mice, single intravenous injection, read-out: Clearance rate): 18 mL/min/kg
- Antagonistic activity against the adenosine A2a receptor (in words) [2]: excellent antagonistic activity
SMILES: Cc1cc(-c2c(-c3ccccc3)nc(N)n3nc(CO)nc23)cc(C(F)(F)F)n1 [Compound 1, (5-amino-8-(2-methyl-6-(trifluoromethyl)pyridin-4-yl)-7-phenyl-[1,2,4]triazolo[1,5-c]pyrimidin-2-yl)methanol]

- Solubility in the solvents of Table 2 (in words) ([4]; conclusion on Table 2): good solubility
- solubility ([4]; solvent 1,4-Dioxane): 35 to 52.5 mg/mL (≈ 87.4 to 131 mM)
- solubility ([4]; solvent Acetone): 33.3 to 50 mg/mL (≈ 83.2 to 125 mM)
- solubility ([4]; solvent Acetonitrile): 12.2 to 13.8 mg/mL (≈ 30.5 to 34.5 mM)
- solubility ([4]; solvent Acetonitrile:Water (2:1)): 26.3 to 35 mg/mL (≈ 65.7 to 87.4 mM)
- solubility ([4]; solvent Ethanol): 28.8 to 38.3 mg/mL (≈ 71.9 to 95.7 mM)
- solubility ([4]; solvent Ethanol:Water (3:1)): 25 to 50 mg/mL (≈ 62.4 to 125 mM)
- solubility ([4]; solvent Ethyl acetate): 12.5 to 16.7 mg/mL (≈ 31.2 to 41.7 mM)
- solubility ([4]; solvent Isopropanol): 14.4 to 16.4 mg/mL (≈ 36 to 41 mM)
- solubility ([4]; solvent Methanol): 47.5 to 95 mg/mL (≈ 119 to 237 mM)
- solubility ([4]; solvent Methyl ethyl ketone): 36.7 to 55 mg/mL (≈ 91.7 to 137 mM)
- solubility ([4]; solvent N-butanol): 15.7 to 18.3 mg/mL (≈ 39.2 to 45.7 mM)
- solubility ([4]; solvent Tetrahydrofuran): > 105 mg/mL
SMILES: Cc1cc(-c2c(-c3ccccc3)nc(N)n3nc(CO)nc23)cc(C(F)(F)F)n1 [Crystal form A of compound 1, (5-amino-8-(2-methyl-6-(trifluoromethyl)pyridin-4-yl)-7-phenyl-[1,2,4]triazolo[1,5-c]pyrimidin-2-yl)methanol]
- Anti-tumor effect (in words) ([3]; CT-26 mouse model, crystal form A 50 mg/Kg BID): has an anti-tumor effect; also recorded: significant inhibitory effect on the tumor
- Volume of tumor ([3]; Day 10): 47 mm^3
- Volume of tumor ([3]; Day 13): 127 mm^3
- Volume of tumor ([3]; Day 15): 204 mm^3
- Volume of tumor ([3]; Day 18): 312 mm^3
- Volume of tumor ([3]; Day 20): 409 mm^3
- Volume of tumor ([3]; Day 22): 538 mm^3
